Patent US8101616B2, “Pyridine and pyrimidine derivatives as inhibitors of histone deacetylase” (Janssen Pharmaceutica N.V., priority 2006, dated 2012)
≈ marks a conversion by molar mass, not a printed value. Where two headings read alike, the source gives them in different places.

Tests used:
[1] = system: A2780 ovarian carcinoma cells; experiment: Antiproliferative activity on A2780 cells, MTT (C.2); format: cell-based; details: Homo sapiens, 96 h, four days of incubation, read-out: Cellular activity pIC50 C.2 (converted)
Experimental: Cellular activity of the compounds of formula (I) was determined on A2780 tumour cells using a […] assay for cell toxicity or survival (Mosmann Tim, Journal of Immunological Methods 65: 55-63, 1983) (see example C.2).
All compounds tested were dissolved in DMSO and further dilutions were made in culture medium. Final DMSO concentrations never exceeded 0.1% (v/v) in cell proliferation assays. Controls contained A2780 cells and DMSO without compound and blanks contained DMSO but no cells. MTT was dissolved at 5 mg/ml in PBS. A glycine buffer comprised of 0.1 M glycine and 0.1 M NaCl buffered to pH 10.5 with NaOH (1 N) was prepared (all reagents were from Merck).
The human A2780 ovarian carcinoma cells (a kind gift from Dr. T. C. Hamilton [Fox Chase Cancer Centre, Pennsylvania, USA]) were cultured in RPMI 1640 medium supplemented with 2 mM L-glutamine, 50 μg/ml gentamicin and 10% fetal calf serum. Cells were routinely kept as monolayer cultures at 37° C. in a humidified 5% CO2 atmosphere. Cells were passaged once a week using a trypsin/EDTA solution at a split ratio of 1:40. All media and supplements were obtained from Life Technologies. Cells were free of mycoplasma contamination as determined using the Gen-Probe Mycoplasma Tissue Culture kit (supplier: BioMérieux).
Cells were seeded in NUNC™ 96-well culture plates (Supplier: Life Technologies) and allowed to adhere to the plastic overnight. Densities used for plating were 1500 cells per well in a total volume of 200 μl medium. After cell adhesion to the plates, medium was changed and drugs and/or solvents were added to a final volume of 200 μl. Following four days of incubation, medium was replaced by 200 μl fresh medium and cell density and viability was assessed using an MTT-based assay. […] For each sample, the mean value for cell growth (in absorbance units) was expressed as a percentage of the mean value for cell growth of the control. […] Herein the effects of test compounds are expressed as pIC50 (the negative log value of the IC50-value) (see Table F-2).

[2] = molecular target: histone deacetylase (HeLa nuclear extracts); experiment: In vitro assay for inhibition of histone deacetylase with fluorescent-labelled substrate (C.1); format: biochemical; details: Fluor de Lys substrate
Excerpt: The in vitro assay for inhibition of histone deacetylase (see example C.1) measures the inhibition of HDAC enzymatic activity obtained with the compounds of formula (I).
The HDAC Fluorescent Activity Assay/Drug Discovery Kit of Biomol (cat. No: AK-500-0001) was used. The HDAC Fluorescent Activity Assay is based on the Fluor de Lys (Fluorogenic Histone deAcetylase Lysyl) substrate and developer combination. The Fluor de Lys substrate, comprises an acetylated lysine side chain. Deacetylation of the substrate sensitizes the substrate so that, in the second step, treatment with the Fluor de Lys developer produces a fluorophore.
HeLa nuclear extracts (supplier: Biomol) were incubated at 60 μg/ml with 75 μM of substrate. The Fluor de Lys substrate was added in a buffer containing 25 mM Tris, 137 mM NaCl, 2.7 mM KCl and 1 mM MgCl2.6H2O at pH 7.4. After 30 min, 1 volume of the developer was added. The fluorophore was excited with 355 nm light and the emitted light (450 nm) was be detected on a fluorometric plate reader.
For each experiment, controls (containing HeLa nuclear extract and buffer), a blank incubation (containing buffer but no HeLa nuclear extract) and samples (containing compound dissolved in DMSO and further diluted in buffer and HeLa nuclear extract) were run in parallel. In first instance, compounds were tested at a concentration of 10^−5M. […] All sample were tested 4 times. In each test the blank value was substracted from both the control and the sample values. The control sample represented 100% of substrate deactylation. For each sample the fluorescence was expressed as a percentage of the mean value of the controls. […] Herein the effects of test compounds are expressed as pIC50 (the negative log value of the IC50-value) (see Table F-2).

[3] = Solubility at pH 2.3, chemiluminescent nitrogen detector (C.3.b); format: physicochemical
Experimental: The solubility of a compound measures the ability of a compound to stay in solution. In the first method, the ability of a compound to stay in aqueous solution upon dilution (see example C.3.a) is measured. DMSO-stock solutions are diluted with a single aqueous buffer solvent in different consecutive steps. In this method (C.3.a), mixtures are then scanned in the BD Gentest Solubility Scanner for the occurrence of precipitation. In a second method the solubility of a compound at different pH's can be measured with the use of a chemiluminescent nitrogen detector (see example C.3.b).
The solubility of a compound, at pH 2.3, can also be measured with the use of a chemiluminescent nitrogen detector (see Table F-2).

| SMILES | IC50 [1] [nM] | Enzymatic activity pIC50 C.1 [2] | % metabolism (human, 15 min, 5 μM) [%] | solubility [3] [µg/mL] | % metabolism (15 min incubation with active microsomes, reference compounds) [%] |
| --- | --- | --- | --- | --- | --- |
| COc1cc(N)c(Cl)cc1C(=O)NC1CCN(CCCOc2ccc(F)cc2)CC1OC (stereo not drawn) [Cisapride] |  |  | 45 |  |  |
| CCCO [propanol] |  |  |  |  | 25 |
| COCC(/C=C/c1ccc(F)cc1)N1CCN(c2ccc(C(=O)Nc3ccccc3N)cn2)CC1 (stereo not drawn) [Compound 1] | 2510 | <6 |  |  |  |

Second part, led by results:

| IC50 [1] [nM] | Enzymatic activity pIC50 C.1 [2] | % metabolism (human, 15 min, 5 μM) [%] | solubility [3] [µg/mL] | SMILES | % metabolism (15 min incubation with active microsomes, reference compounds) [%] |
| --- | --- | --- | --- | --- | --- |
| 251 | <6 |  |  | Nc1ccccc1NC(=O)c1cnc(N2CCN(C(/C=C/c3cccc(F)c3)CO)CC2)nc1 (stereo not drawn) [Compound 2] |  |
| 200 | 4.8 |  | 3700 (≈ 8.32 mM) | Nc1ccccc1NC(=O)c1cnc(N2CCN(C(/C=C/c3ccccc3)CO)CC2)nc1 (stereo not drawn) [Compound 3] |  |
